Results: patent publication US6596726B1, “Tricyclic compounds capable of inhibiting tyrosine kinases of the epidermal growth factor receptor family” (Warner Lambert Company, priority 1994, dated 2003)
Counter-ions that a name gives are not always drawn. Like-named read-outs stand apart in the source and are kept apart here.

Target: T1, Human EGF receptor tyrosine kinase (Homo sapiens, UniProt P00533)
T1 construct: Human EGF receptor tyrosine kinase was isolated from A431 human epidermoid carcinoma cells which overexpress EGF receptor; endogenous in cells; host or cells: A431 human epidermoid carcinoma cells; purified on wheat germ agglutinin sepharose
Test: EGF receptor tyrosine kinase inhibition (phosphorylation of PLC-gamma 1 derived peptide)
Type: biochemical
Protocol: Purification of Epidermal Growth Factor Receptor Tyrosine Kinase—Human EGF receptor tyrosine kinase was isolated from A431 human epidermoid carcinoma cells which overexpress EGF receptor by the following methods. Cells were grown in roller bottles in 50% Delbuco's Modified Eagle and 50% HAM F-12 nutrient media (Gibco) containing 10% fetal calf serum. Approximately 10^9 cells were lysed in two volumes of buffer containing 20 mM 2-(4N-[2-hydroxyethyl]piperazin-1-yl)ethanesulfonic acid (hepes), pH 7.4, 5 mM ethylene glycol bis(2-aminoethyl ether) N,N,N′,N′-tetraacetic acid, 1% Triton X-100, 10% glycerol, 0.1 mM sodium orthovanadate, 5 mM sodium fluoride, 4 mM pyrophosphate, 4 mM benzamide, 1 mM dithiothreitol, 80 μg/mL aprotinin, 40 μg/mL leupeptin and 1 mM phenylmethylsulfonyl fluoride. After centrifugation at 25,000×g for 10 minutes, the supernatant was equilibrated for 2 h at 4° C. with 10 mL of wheat germ agglutinin sepharose that was previously equilibrated with 50 mM Hepes, 10% glycerol, 0.1% Triton X-100 and 150 mM NaCl, pH 7.5, (equilibration buffer). Contaminating proteins were washed from the resin with 1 M NaCl in equilibration buffer, and the enzyme was eluted with 0.5 M N-acetyl-1-D-glucosamine in equilibration buffer, followed by 1 mM urea. The enzyme was eluted with 0.1 mg/ml EGF.
The reaction was terminated by the addition of 2 mL of 75 mM phosphoric acid and passed through a 2.5 cm phosphocellulose filter disc to bind the peptide. The filter was washed five times with 75 mM phosphoric acid and placed in a vial along with 5 mL of scintillation fluid (Ready gel Beckman).

[1] = EGF Receptor Tyrosine Kinase Inhibition, Table 1, values in nM, read-out: IC50 in EGFR

Row | Compound | IC50 [1] [nM] | IC50 [nM] | further results
1 | c1ccc(Nc2ncnc3[nH]c4ccccc4c23)cc1 [Example 27, 4-Anilinoindolo[2,3-d]pyrimidine] | 264 | – | –
2 | Brc1cccc(Nc2ncnc3cc4ncoc4cc23)c1 [Example 5] | – | – | IC50 (EGF Receptor Tyrosine Kinase Inhibition, Table 1, values in pM, read-out: IC50 in EGFR): 0.075 nM
3 | 4-(3-Bromoanilino)imidazolo[4,5-h]quinazoline hydrochloride [Example 11] | – | – | IC50 (read-out: IC50 in EGFR): 272 nM
4 | c1ccc(CNc2ncnc3c2[nH]c2ccccc23)cc1 [Example 23, 4-Benzylaminoindolo[3,2-d]pyrimidine] | 460 | – | –
5 | C[C@@H](Nc1ncnc2c1sc1ccccc12)c1ccccc1 [Example 14, 4-([R]-1-Phenylethylamino)benzothieno[3,2-d]pyrimidine] | 538 | – | –
6 | COc1ccc2[nH]c3ncnc(Nc4cccc(Br)c4)c3c2c1 [Example 31, 4-(3-Bromoanilino)6-methoxyindolo[2,3-d]pyrimidine] | – | 220 | –
7 | Clc1cccc(Nc2ncnc3c2sc2ncccc23)c1 [Example 20, 4-(3-Chloroanilino)pyrido[3′, 2′:4,5]thieno[3,2-d]pyrimidine] | – | – | IC50 (EGF Receptor Tyrosine Kinase Inhibition, Table 1, values printed in μM, read-out: IC50 in EGFR): 1300 nM
8 | O=[N+]([O-])c1ccc2sc3c(Nc4cccc(Br)c4)ncnc3c2c1 [Example 16, 4-(3-Bromoanilino)-8-nitrobenzo[b]thieno[3,2-d]pyrimidine] | 12.3 | – | –
9 | COc1cccc2sc3c(Nc4cccc(Br)c4)ncnc3c12.Cl [Example 18, 4-(3-Bromoanilino)-9-methoxybenzo[b]thieno[3,2-d]pyrimidine hydrochloride.] | – | – | EGFR inhibition at fixed concentration (@ 10 nM): 36% @ 10
10 | 4-(3-Bromoanilino)triazolo[4,5-g]quinazoline hydrochloride [Example 7] | 4.1 | – | –
11 | Nc1nc(Nc2cccc(Br)c2)c2c(n1)[nH]c1ccccc12 [Example 32, 2-Amino-4-(3-bromoanilino)pyrimido[2,3-d]indole] | 160 | – | –
12 | Brc1cccc(Nc2ncnc3c2oc2ccccc23)c1 [Example 34, 4-(3-Bromoanilino)benzofurano[3,2-d]pyrimidine] | – | 740 | –
13 | Brc1cccc(Nc2ncnc3cc4[nH]ccc4cc23)c1 [Example 3, 4-(3-Bromoanilino)pyrrolo[3,2-g]quinazoline] | – | 0.76 | –
14 | Cn1cnc2cc3ncnc(Nc4cccc(Br)c4)c3cc21 [Example 9, 4-(3-Bromoanilino)-6,N-methylimidazolo[4,5-g]quinazoline] | – | ~0.01 | –
15 | C[C@@H](Nc1ncnc2cc3ccccc3cc12)c1ccccc1 [Example 2, 4-([R]-1-Phenylethylamino)benzo[g]quinazoline hydrochloride] | 21 | – | –
16 | Brc1cccc(Nc2ncnc3c2sc2ncccc23)c1 [Example 21, 4-(3-bromoanilino)pyrido[3′, 2′; 4,5]thieno[3,2-d]pyrimidine] | – | 732 | –
